# Reference: patent US20070173478A1, “Compositions for the enhanced treatment of depression” (WWK TRUST, priority 2003, published 2007)
# System: chronic endogenous depression
# Test: Case #1: patient with chronic endogenous depression
# Type: in vivo, human
# Settings: person
Compound,"antidepressant effect of fluoxetine alone (30 mg fluoxetine once daily, before the combination)",effect of previous treatment (previous treatment),side effects of previous treatment (previous treatment)
CNCCC(Oc1ccc(C(F)(F)F)cc1)c1ccccc1 (stereo not drawn) [fluoxetine],requiring increasing doses to sustain antidepressant effects,–,–
CN(C)CC/C=C1\c2ccccc2CSc2ccccc21 [prothiaden],–,relatively ineffective,complained of side effects
